Data: US20230114728A1 (Venatorx Pharmaceuticals, Inc., priority 2019, published 2023)
Values after ≈ are worked out from the molar mass of the structure shown.

Tests used:
[1] = test system: E. coli 901C; test: Broth microdilution MIC in CAMHB; format: cell-based; conditions: Escherichia coli; E. coli 901C (hyper-permeable); MHB; read-out: Minimum Inhibitory Concentration, E. coli 901C
In short: (§1)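 Hyper-permeable or efflux-deficient strains serve to probe outer-membrane penetration. Growth inhibition is scored visually after 16-20 h at 37° C in CAMHB, starting from 2-8×10^5 CFU/mL.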

[2] = test system: E. coli AG100; test: Broth microdilution MIC in CAMHB; format: cell-based; conditions: Escherichia coli; E. coli AG100 (wild-type parent); MHB; read-out: Minimum Inhibitory Concentration, E. coli AG100
In short: as §1

[3] = test system: E. coli AG100A; test: Broth microdilution MIC in CAMHB; format: cell-based; conditions: Escherichia coli, read-out: Minimum Inhibitory Concentration, E. coli AG100A
In short: as §1

[4] = test system: K. pneumoniae 848844 producing SHV-11 and KPC-2; test: Broth microdilution MIC in CAMHB; format: cell-based; conditions: Klebsiella pneumoniae, read-out: Minimum Inhibitory Concentration, K. pneumoniae 848844
In short: as §1

[5] = test system: K. pneumoniae UMM producing SHV-5 and KPC-2; test: Broth microdilution MIC in CAMHB; format: cell-based; conditions: Klebsiella pneumoniae, read-out: Minimum Inhibitory Concentration, K. pneumoniae UMM
In short: as §1

[6] = test system: P. aeruginosa ATCC 35151; test: Broth microdilution MIC in CAMHB; format: cell-based; conditions: Pseudomonas aeruginosa, ATCC35151; MHB; hyper-permeable strain; read-out: Minimum Inhibitory Concentration, P. aeruginosa ATCC 35151
In short: as §1

[7] = test system: E. coli D22; test: Broth microdilution MIC in CAMHB; format: cell-based; conditions: Escherichia coli; E. coli D22 (hyper-permeable); MHB; read-out: Minimum Inhibitory Concentration, E. coli D22
In short: as §1

[8] = test system: A. baumannii ATCC 19606; test: Broth microdilution MIC in CAMHB; format: cell-based; conditions: Acinetobacter baumannii, ATCC19606; MHB; read-out: Minimum Inhibitory Concentration, A. baumannii ATCC 19606
In short: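 MIC, read by eye, is the lowest compound concentration giving no bacterial growth after 16-20 h at 37° C. Test compounds are serially diluted 2-fold in CAMHB and seeded with 2-8×10^5 CFU/mL of bacteria taken from a 3-5 h shaking culture, following CLSI methods.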

[9] = test system: P. aeruginosa (ΔmexAB-oprM); test: Broth microdilution MIC in CAMHB; format: cell-based; conditions: Pseudomonas aeruginosa, read-out: Minimum Inhibitory Concentration, P. aeruginosa ΔmexAB-OprM
In short: as §1

[10] = test system: K. pneumoniae SI-117 producing VIM-1; test: Broth microdilution MIC in CAMHB; format: cell-based; conditions: Klebsiella pneumoniae, read-out: Minimum Inhibitory Concentration, K. pneumoniae SI-117
In short: as §1

[11] = test system: E. coli ATCC 25922; test: Broth microdilution MIC in CAMHB; format: cell-based; conditions: Escherichia coli, ATCC25922; E. coli ATCC 25922; MHB; read-out: Minimum Inhibitory Concentration, E. coli 25922
In short: as §1

[12] = target: T1, P. aeruginosa PBP3 (Pseudomonas aeruginosa, UniProt G3XD46); test: Bocillin-FL fluorescence polarization competition binding assay, P. aeruginosa PBP3; conditions: fluorescence polarization competition binding assay using Bocillin-FL
T1 construct: made in house
T1 sequence (G3XD46 whole entry): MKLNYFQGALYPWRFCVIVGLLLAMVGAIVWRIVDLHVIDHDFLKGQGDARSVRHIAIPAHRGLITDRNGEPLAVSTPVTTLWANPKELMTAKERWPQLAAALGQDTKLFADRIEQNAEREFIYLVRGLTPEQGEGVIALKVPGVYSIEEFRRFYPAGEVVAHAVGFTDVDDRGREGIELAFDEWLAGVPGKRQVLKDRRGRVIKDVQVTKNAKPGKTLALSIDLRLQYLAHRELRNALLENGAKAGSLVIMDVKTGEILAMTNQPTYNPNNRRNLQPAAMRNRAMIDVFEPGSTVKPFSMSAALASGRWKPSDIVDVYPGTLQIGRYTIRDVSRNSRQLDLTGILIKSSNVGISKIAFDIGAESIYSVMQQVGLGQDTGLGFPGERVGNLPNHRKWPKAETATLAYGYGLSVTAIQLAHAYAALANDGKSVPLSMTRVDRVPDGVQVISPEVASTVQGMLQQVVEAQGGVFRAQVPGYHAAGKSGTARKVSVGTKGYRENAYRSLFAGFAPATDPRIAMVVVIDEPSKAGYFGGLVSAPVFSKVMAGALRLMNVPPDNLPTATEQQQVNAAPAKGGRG
In short: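 Inhibitor competition with Bocillin-FL for P. aeruginosa PBP3 was followed by fluorescence polarization on a Cytation3 (BioTek) reader, using g-factor 0.96, 490 nm excitation and 520 nm emission. The enzyme was at 0.75 μM and the probe at 0.1 μM in Hepes/NaCl/glycerol buffer, 80 μl per well. FP was recorded immediately after probe addition for up to 60 minutes. Potency was expressed as EC50, the concentration that reduces bound probe by 50%.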

[13] = test system: P. aeruginosa PAO1; test: Broth microdilution MIC in CAMHB; format: cell-based; conditions: Pseudomonas aeruginosa, MHB, read-out: Minimum Inhibitory Concentration, P. aeruginosa PAO1
Procedure: To determine the ability of test compounds to inhibit the growth of bacterial strains, classic cell based broth microdilution minimum inhibitory concentration (MIC) assays were employed. MIC assays are performed according to CLSI methods except where otherwise noted (CLSI, 2018 and CLSI, 2019). The reference type strain E. coli ATCC 25922; the wild-type parent strain E. coli AG100; the hyper-permeable E. coli 901C and E. coli D22; and the E. coli AG100A strain lacking the acrAB efflux pump encoding genes were used to determine the ability of the PBP inhibitors to penetrate the outer membrane of gram-negative bacteria and inhibit bacterial growth. […] The P. aeruginosa ATCC 27853 and A. baumannii ATCC 19606, along with the hyper-permeable P. aeruginosa ATCC 35151 and an engineered efflux pump-compromised strain of P. aeruginosa (ΔmexAB-oprM) were used to determine the ability of PBP inhibitors to penetrate the outer membrane of P. aeruginosa and A. baumannii and assess antibacterial activity against these important gram-negative organisms.
Briefly, cryo-preserved bacterial cultures of challenge strains are streaked for isolation on appropriate agar medium, in this case cation-adjusted Mueller Hinton agar. Following incubation to allow growth of the colonies, plates are sealed with parafilm and stored refrigerated for up to two weeks. For preparation of assay inoculum and to ensure low variability, at least 5 colonies are picked from the agar plates with an inoculating loop and aseptically transferred to a culture tube containing 3 mL of cation-adjusted Mueller Hinton broth (CAMHB). The broth culture is grown for 3-5 hours at 37° C. with shaking at 200 rpm. Meanwhile, 2-fold serial dilutions of test compounds are conducted in a 96-well plate with a final volume of 75 μL per well at 2-fold the final desired concentration. After the dilution plates are set up the growing cultures are then diluted in a cuvette containing CAMHB and the optical density is measured at 600 nm. The inoculum is diluted such that 75 μL of this culture in CAMHB results in a starting bacterial concentration of 2-8×10^5 CFU/mL when added to the dilution plates. The plates are incubated for 16-20 hours for Enterobacteriaceae and Pseudomonas and 20-24 hours for Acinetobacter at 37° C. The MIC values are read visually as the lowest concentration well with no bacterial growth.

[14] = target: T2, E. coli K12 PBP3 (Escherichia coli, UniProt P0AD68); test: biochemical; format: binding
T2 construct: made in house
T2 sequence (P0AD68 1-577): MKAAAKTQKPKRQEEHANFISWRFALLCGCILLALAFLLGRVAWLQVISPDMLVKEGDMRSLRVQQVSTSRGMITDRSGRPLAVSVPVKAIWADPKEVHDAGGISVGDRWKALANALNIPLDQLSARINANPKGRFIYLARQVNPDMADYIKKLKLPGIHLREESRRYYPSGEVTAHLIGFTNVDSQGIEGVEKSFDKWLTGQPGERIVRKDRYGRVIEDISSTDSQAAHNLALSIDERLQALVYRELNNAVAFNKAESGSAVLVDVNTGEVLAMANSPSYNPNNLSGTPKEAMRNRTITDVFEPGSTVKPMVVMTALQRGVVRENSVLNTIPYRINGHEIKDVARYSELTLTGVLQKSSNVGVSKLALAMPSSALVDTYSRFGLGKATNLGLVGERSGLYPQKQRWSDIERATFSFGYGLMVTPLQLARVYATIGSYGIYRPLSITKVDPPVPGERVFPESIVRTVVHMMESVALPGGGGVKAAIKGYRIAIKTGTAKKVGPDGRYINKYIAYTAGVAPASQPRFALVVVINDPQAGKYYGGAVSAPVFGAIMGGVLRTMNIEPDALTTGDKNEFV
In short: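 A. baumannii PBP2 (2.5 μM) and PBP3 (0.2 μM) were run in 25 mM Tris pH 8.0 buffer with Tween 20; E. coli PBP3 (1.5 μM) and N. gonorrhoeae PBP2 ([…]) in 50 mM Hepes pH 8.0 buffer.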

[15] = target: T3, E. coli K12 PBP2 (Escherichia coli, UniProt P0AD65); test: Bocillin-FL fluorescence polarization competition binding assay, E. coli PBP2
T3 construct: made in house
T3 sequence (P0AD65 whole entry): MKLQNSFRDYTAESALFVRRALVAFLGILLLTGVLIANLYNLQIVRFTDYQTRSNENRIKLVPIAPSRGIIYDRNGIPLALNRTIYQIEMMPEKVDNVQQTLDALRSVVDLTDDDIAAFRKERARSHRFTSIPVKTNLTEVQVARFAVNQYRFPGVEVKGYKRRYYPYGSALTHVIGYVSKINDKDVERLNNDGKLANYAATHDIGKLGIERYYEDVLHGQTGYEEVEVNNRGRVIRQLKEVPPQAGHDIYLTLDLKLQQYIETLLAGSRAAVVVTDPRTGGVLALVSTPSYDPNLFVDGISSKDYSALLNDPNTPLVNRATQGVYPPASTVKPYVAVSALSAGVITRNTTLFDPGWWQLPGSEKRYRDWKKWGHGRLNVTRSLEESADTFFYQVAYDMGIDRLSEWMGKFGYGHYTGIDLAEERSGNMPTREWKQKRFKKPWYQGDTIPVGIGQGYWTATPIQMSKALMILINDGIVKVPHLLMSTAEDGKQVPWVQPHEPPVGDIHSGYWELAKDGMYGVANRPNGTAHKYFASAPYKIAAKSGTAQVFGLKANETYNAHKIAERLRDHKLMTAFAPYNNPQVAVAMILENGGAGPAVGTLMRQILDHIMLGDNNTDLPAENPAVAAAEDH
Excerpt: (§2) Example I: Experimental Method for Penicillin-Binding Protein Binding Assays with Bocillin-FL Via Fluorescence Polarization
To determine the ability of boronic acid-based test PBP inhibitors to bind Penicillin Binding Proteins (PBPs), Bocillin-FL (fluorescently-labeled penicillin V; ThermoFisher Scientific) was used in a fluorescence polarization (FP) competition binding assay to assess inhibitor binding to PBP2, PBP3 or PBP4 from Escherichia coli (K12), PBP3 from Pseudomonas aeruginosa (PA01), PBP1a, PBP2 and PBP3 from Acinetobacter baumannii (ATCC 19606), and PBP2 from Neiserria gonorrheae (FA19). PBPs were cloned and purified as described previously (E. coli PBPs, King, D. T, et al., ACS Infectious Diseases 2015, 1, 175-184; P. aeruginosa PBP3, Han et. al., PNAS 2010, 107 (51), 22002-22007; A. baumannii PBPs, Penwell et. al., Antimicrob. Agents Chemother. 2015, 59 (3), 1680-1689; N. gonorrhoeae PBP2, Singh et. al., J Biol. Chem. 2019, 294 (38), 14020-14032). To establish assay conditions for competition binding, enzyme titration/saturation binding experiments were initially performed. Bocillin-FL was prepared at 0.2 μM in a buffer comprised of 50 mM Hepes (pH 8.0), 300 mM NaCl and 5% (v/v) glycerol for reactions with E. coli, P. aeruginosa and N. gonorrhoeae PBPs, and 25 mM Tris (pH 8.0), 200 mM NaCl and 10% (v/v) glycerol and 0.005% (v/v) Tween 20 for reactions with A. baumannii PBPs. Saturation binding was performed by mixing 40 μl of PBP solutions ranging in concentrations from 0-24 μM with 40 μl of the 0.2 μM Bocillin-FL solution, in individual wells of a black 384-well microplate. FP was measured immediately upon mixing (Excitation, 490 nm; Emission, 520 nm; g-factor, 0.96), using a Cytation3 (BioTek) microplate reader and measured continuously for up to 120 minutes. […] Bocillin-FL was added and the FP immediately measured for up to 60 minutes (90 minutes for E. coli PBP2). […]

[16] = target: T4, A. baumannii PBP2 (Acinetobacter baumannii, UniProt D0C8Z9); test: Bocillin-FL fluorescence polarization competition binding assay, A. baumannii PBP2
T4 construct: made in house
T4 sequence (D0C8Z9 1-672): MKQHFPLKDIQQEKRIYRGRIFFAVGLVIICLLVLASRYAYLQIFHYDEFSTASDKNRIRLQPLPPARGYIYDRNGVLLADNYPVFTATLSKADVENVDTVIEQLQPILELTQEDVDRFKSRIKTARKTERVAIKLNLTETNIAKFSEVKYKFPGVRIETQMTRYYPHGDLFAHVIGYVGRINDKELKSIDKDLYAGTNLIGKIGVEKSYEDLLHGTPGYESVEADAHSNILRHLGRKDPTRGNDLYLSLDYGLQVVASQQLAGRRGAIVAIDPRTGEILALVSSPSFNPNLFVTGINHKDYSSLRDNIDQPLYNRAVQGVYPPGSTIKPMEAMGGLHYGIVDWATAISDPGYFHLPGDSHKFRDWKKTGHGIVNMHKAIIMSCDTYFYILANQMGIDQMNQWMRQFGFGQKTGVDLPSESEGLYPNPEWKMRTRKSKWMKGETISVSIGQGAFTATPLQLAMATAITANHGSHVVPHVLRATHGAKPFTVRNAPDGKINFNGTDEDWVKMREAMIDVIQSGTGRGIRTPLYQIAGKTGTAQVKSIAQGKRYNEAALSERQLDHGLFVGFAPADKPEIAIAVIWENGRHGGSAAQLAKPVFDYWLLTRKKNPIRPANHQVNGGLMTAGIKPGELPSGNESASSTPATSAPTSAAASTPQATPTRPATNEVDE
Excerpt: as §2
To determine the ability of boronic acid-based test PBP inhibitors to bind Penicillin Binding Proteins (PBPs), Bocillin-FL (fluorescently-labeled penicillin V; ThermoFisher Scientific) was used in a fluorescence polarization (FP) competition binding assay to assess inhibitor binding to PBP2, PBP3 or PBP4 from Escherichia coli (K12), PBP3 from Pseudomonas aeruginosa (PA01), PBP1a, PBP2 and PBP3 from Acinetobacter baumannii (ATCC 19606), and PBP2 from Neiserria gonorrheae (FA19). PBPs were cloned and purified as described previously (E. coli PBPs, King, D. T, et al., ACS Infectious Diseases 2015, 1, 175-184; P. aeruginosa PBP3, Han et. al., PNAS 2010, 107 (51), 22002-22007; A. baumannii PBPs, Penwell et. al., Antimicrob. Agents Chemother. 2015, 59 (3), 1680-1689; N. gonorrhoeae PBP2, Singh et. al., J Biol. Chem. 2019, 294 (38), 14020-14032). To establish assay conditions for competition binding, enzyme titration/saturation binding experiments were initially performed. Bocillin-FL was prepared at 0.2 μM in a buffer comprised of 50 mM Hepes (pH 8.0), 300 mM NaCl and 5% (v/v) glycerol for reactions with E. coli, P. aeruginosa and N. gonorrhoeae PBPs, and 25 mM Tris (pH 8.0), 200 mM NaCl and 10% (v/v) glycerol and 0.005% (v/v) Tween 20 for reactions with A. baumannii PBPs. Saturation binding was performed by mixing 40 μl of PBP solutions ranging in concentrations from 0-24 μM with 40 μl of the 0.2 μM Bocillin-FL solution, in individual wells of a black 384-well microplate. FP was measured immediately upon mixing (Excitation, 490 nm; Emission, 520 nm; g-factor, 0.96), using a Cytation3 (BioTek) microplate reader and measured continuously for up to 120 minutes. […] The competition binding assay (80 μl final volume) was validated using beta-lactams and PBPs at final concentrations of: 1.5 μM, E. coli PBP3; 0.75 μM, P. aeruginosa PBP3; 1 μM A. baumannii PBP1a; 2.5 μM A. baumannii PBP2; 0.2 μM A. baumannii PBP3; and […] N. gonorrhoeae PBP2. Bocillin-FL was at 0.1 μM (0.05 μM with A. baumannii PBP1a) and beta-lactam concentrations ranged from 0-1000 μM. […] Bocillin-FL was added and the FP immediately measured for up to 60 minutes (90 minutes for E. coli PBP2). […] The beta-lactam potency was reported as the concentration of beta-lactam required to reduce the amount of PBP bound-Bocillin-FL by 50% (EC50). […] Binding assays for boronic acid PBP inhibitors were performed in an identical fashion for the respective PBPs

SMILES	MIC [1]	MIC [2]	MIC [3]	MIC [4]	MIC [5]	MIC [6]	MIC [7]	MIC [8]	MIC [9]	MIC [10]	MIC [11]	P. aeruginosa PBP3 Potency [12]	MIC [13]	EC50 [14]	EC50 [15]	EC50 [16]
CCN1CCN(C(=O)NC(C(=O)N[C@H]2Cc3ccc(C(F)(F)F)c(C(=O)O)c3OB2O)c2csc(N)n2)C(=O)C1=O (stereo partly drawn) [Example 63, (3R)-3-(2-(2-aminothiazol-4-yl)-2-(4-ethyl-2,3-dioxopiperazine-1-carboxamido)acetamido)-2-hydroxy-7-(trifluoromethyl)-3,4-dihydro-2H-benzo[e][1,2]oxaborinine-8-carboxylic acid]	8 to 16 µg/mL (≈ 13.4 to 26.7 µM)	> 128 µg/mL	> 128 µg/mL	> 128 µg/mL	> 128 µg/mL	8 to 16 µg/mL (≈ 13.4 to 26.7 µM)	> 128 µg/mL	> 128 µg/mL	> 128 µg/mL	> 128 µg/mL	> 128 µg/mL	B (B represents a potency between 30 μM and 500 μM inclusive)	> 128 µg/mL	> 500 µM	–	–
CCN1CCN(C(=O)NC(C(=O)N[C@H]2Cc3ccc(SCCN4CCCC4)c(C(=O)O)c3OB2O)c2csc(N)n2)C(=O)C1=O (stereo partly drawn) [Example 64, (3R)-3-(2-(2-aminothiazol-4-yl)-2-(4-ethyl-2,3-dioxopiperazine-1-carboxamido)acetamido)-2-hydroxy-7-((2-(pyrrolidin-1-yl)ethyl)thio)-3,4-dihydro-2H-benzo[e][1,2]oxaborinine-8-carboxylic acid]	32 to 64 µg/mL (≈ 48.5 to 97 µM)	> 128 µg/mL	> 128 µg/mL	> 128 µg/mL	> 128 µg/mL	8 to 16 µg/mL (≈ 12.1 to 24.3 µM)	> 128 µg/mL	> 128 µg/mL	> 128 µg/mL	> 128 µg/mL	> 128 µg/mL	B (B represents a potency between 30 μM and 500 μM inclusive)	> 128 µg/mL	> 500 µM	–	–
CC1(C)S[C@@H]2[C@H](/N=C/N3CCCCCC3)C(=O)N2[C@H]1C(=O)O [mecillinam, reference compound]	–	–	–	–	–	–	–	–	–	–	–	–	–	–	2100 nM	400 nM
